Assay results taken from the NIST ThermoML archive (doi:10.1016/j.jct.2008.10.010).
± gives the expanded uncertainty stated by the source.

Assay: molar heat capacity at constant pressure; xn = mol fraction of the nth substance listed
Details: 101.3 kPa, Liquid, Small sample (50 mg) DSC

CCC(C)(C)O [2-methylbutan-2-ol] + CCCCCCC
Details | molar heat capacity at constant pressure [J/K/mol]
345.14 K, x1 = 0.0249 | 244.12 ± 3.8
345.14 K, x1 = 0.0494 | 246.22 ± 3.8
345.14 K, x1 = 0.1 | 253.28 ± 3.9
345.14 K, x1 = 0.1547 | 260.94 ± 4
345.14 K, x1 = 0.1999 | 266.5 ± 4.1
345.14 K, x1 = 0.2993 | 275.63 ± 4.3
345.14 K, x1 = 0.4051 | 282.19 ± 4.4
345.14 K, x1 = 0.4986 | 286.41 ± 4.4
345.14 K, x1 = 0.5981 | 289.46 ± 4.5
345.14 K, x1 = 0.7015 | 291.51 ± 4.5
345.14 K, x1 = 0.8023 | 291.94 ± 4.5
345.14 K, x1 = 0.9139 | 291.66 ± 4.5
345.14 K, x1 = 0.9609 | 290.76 ± 4.5
346.15 K, x1 = 0.0061 | 244.11 ± 3.8
346.15 K, x1 = 0.0249 | 244.51 ± 3.8
346.15 K, x1 = 0.0494 | 246.51 ± 3.8
346.15 K, x1 = 0.1 | 253.41 ± 3.9
346.15 K, x1 = 0.1547 | 261 ± 4
346.15 K, x1 = 0.1999 | 266.61 ± 4.1
346.15 K, x1 = 0.2993 | 275.72 ± 4.3
346.15 K, x1 = 0.4051 | 282.35 ± 4.4
346.15 K, x1 = 0.4986 | 286.63 ± 4.4
346.15 K, x1 = 0.5981 | 289.78 ± 4.5
346.15 K, x1 = 0.7015 | 291.88 ± 4.5
346.15 K, x1 = 0.8023 | 292.49 ± 4.5
346.15 K, x1 = 0.9139 | 292.09 ± 4.5
346.15 K, x1 = 0.9609 | 291.29 ± 4.5
347.13 K, x1 = 0.0494 | 246.82 ± 3.8
347.15 K, x1 = 0.9139 | 292.63 ± 4.5
347.16 K, x1 = 0.0061 | 244.48 ± 3.8
347.16 K, x1 = 0.0249 | 244.81 ± 3.8
347.16 K, x1 = 0.1 | 253.4 ± 3.9
347.16 K, x1 = 0.1547 | 261.01 ± 4
347.16 K, x1 = 0.1999 | 266.57 ± 4.1
347.16 K, x1 = 0.2993 | 275.89 ± 4.3
347.16 K, x1 = 0.4051 | 282.48 ± 4.4
347.16 K, x1 = 0.4986 | 286.83 ± 4.4
347.16 K, x1 = 0.5981 | 290.05 ± 4.5
347.16 K, x1 = 0.7015 | 292.26 ± 4.5
347.16 K, x1 = 0.8023 | 292.88 ± 4.5
347.16 K, x1 = 0.9609 | 291.82 ± 4.5
348.14 K, x1 = 0.0061 | 244.95 ± 3.8
348.14 K, x1 = 0.0249 | 245.23 ± 3.8
348.14 K, x1 = 0.0494 | 247.05 ± 3.8
348.14 K, x1 = 0.1 | 253.5 ± 3.9
348.14 K, x1 = 0.2993 | 275.95 ± 4.3
348.14 K, x1 = 0.4051 | 282.77 ± 4.4
348.14 K, x1 = 0.4986 | 287.07 ± 4.5
348.14 K, x1 = 0.5981 | 290.42 ± 4.5
348.14 K, x1 = 0.7015 | 292.68 ± 4.5
348.14 K, x1 = 0.8023 | 293.3 ± 4.5
348.14 K, x1 = 0.9139 | 293.11 ± 4.5
348.14 K, x1 = 0.9609 | 292.28 ± 4.5
348.16 K, x1 = 0.1547 | 261.02 ± 4
348.16 K, x1 = 0.1999 | 266.63 ± 4.1
349.15 K, x1 = 0.0061 | 245.31 ± 3.8
349.15 K, x1 = 0.0249 | 245.69 ± 3.8
349.15 K, x1 = 0.0494 | 247.42 ± 3.8
349.15 K, x1 = 0.1 | 253.6 ± 3.9
349.15 K, x1 = 0.1547 | 261.07 ± 4
349.15 K, x1 = 0.1999 | 266.66 ± 4.1
349.15 K, x1 = 0.2993 | 276.06 ± 4.3
349.15 K, x1 = 0.4051 | 282.91 ± 4.4
349.15 K, x1 = 0.4986 | 287.38 ± 4.5
349.15 K, x1 = 0.5981 | 290.79 ± 4.5
349.15 K, x1 = 0.7015 | 293.13 ± 4.5
349.15 K, x1 = 0.8023 | 293.78 ± 4.5
349.15 K, x1 = 0.9139 | 293.7 ± 4.5
349.15 K, x1 = 0.9609 | 292.9 ± 4.5
350.15 K, x1 = 0.0061 | 245.7 ± 3.8
350.15 K, x1 = 0.0494 | 247.73 ± 3.8
350.15 K, x1 = 0.1999 | 266.71 ± 4.1
350.15 K, x1 = 0.4986 | 287.48 ± 4.5
350.15 K, x1 = 0.5981 | 290.98 ± 4.5
350.15 K, x1 = 0.7015 | 293.35 ± 4.5
350.15 K, x1 = 0.8023 | 294.18 ± 4.6
350.15 K, x1 = 0.9139 | 294.04 ± 4.6
350.15 K, x1 = 0.9609 | 293.31 ± 4.5
350.16 K, x1 = 0.0249 | 245.9 ± 3.8
350.16 K, x1 = 0.1 | 253.7 ± 3.9
350.16 K, x1 = 0.1547 | 261.07 ± 4
350.16 K, x1 = 0.2993 | 276.06 ± 4.3
350.16 K, x1 = 0.4051 | 283.01 ± 4.4
351.14 K, x1 = 0.0061 | 246.16 ± 3.8
351.14 K, x1 = 0.0249 | 246.29 ± 3.8
351.14 K, x1 = 0.0494 | 247.89 ± 3.8
351.14 K, x1 = 0.1 | 253.68 ± 3.9
351.14 K, x1 = 0.1547 | 261.02 ± 4
351.14 K, x1 = 0.1999 | 266.6 ± 4.1
351.14 K, x1 = 0.4051 | 283 ± 4.4
351.14 K, x1 = 0.4986 | 287.61 ± 4.5
351.14 K, x1 = 0.5981 | 291.23 ± 4.5
351.14 K, x1 = 0.7015 | 293.67 ± 4.5
351.14 K, x1 = 0.8023 | 294.44 ± 4.6
351.14 K, x1 = 0.9139 | 294.48 ± 4.6
351.14 K, x1 = 0.9609 | 293.76 ± 4.5
351.16 K, x1 = 0.2993 | 276.1 ± 4.3
352.15 K, x1 = 0.0061 | 246.53 ± 3.8
352.15 K, x1 = 0.0249 | 246.7 ± 3.8
352.15 K, x1 = 0.0494 | 248.24 ± 3.9
352.15 K, x1 = 0.1 | 253.93 ± 3.9
352.15 K, x1 = 0.1547 | 261.06 ± 4
352.15 K, x1 = 0.1999 | 266.66 ± 4.1
352.15 K, x1 = 0.2993 | 276.22 ± 4.3
352.15 K, x1 = 0.4051 | 283.15 ± 4.4
352.15 K, x1 = 0.4986 | 287.82 ± 4.5
352.15 K, x1 = 0.5981 | 291.44 ± 4.5
352.15 K, x1 = 0.7015 | 293.88 ± 4.5
352.15 K, x1 = 0.8023 | 294.82 ± 4.6
352.15 K, x1 = 0.9139 | 294.82 ± 4.6
352.15 K, x1 = 0.9609 | 294.14 ± 4.6
353.15 K, x1 = 0.0061 | 246.79 ± 3.8
353.15 K, x1 = 0.0249 | 247.03 ± 3.8
353.15 K, x1 = 0.0494 | 248.53 ± 3.9
353.15 K, x1 = 0.1 | 253.91 ± 3.9
353.15 K, x1 = 0.1547 | 260.99 ± 4
353.15 K, x1 = 0.1999 | 266.57 ± 4.1
353.15 K, x1 = 0.2993 | 276.2 ± 4.3
353.15 K, x1 = 0.4051 | 283.18 ± 4.4
353.15 K, x1 = 0.4986 | 287.86 ± 4.5
353.15 K, x1 = 0.5981 | 291.63 ± 4.5
353.15 K, x1 = 0.7015 | 294.17 ± 4.6
353.15 K, x1 = 0.8023 | 295.16 ± 4.6
353.15 K, x1 = 0.9139 | 295.27 ± 4.6
353.15 K, x1 = 0.9609 | 294.55 ± 4.6
